These results are taken from patent US4758555A, “Method for treating convulsions and epilepsy with organic copper compounds” (priority 1986, dated 1988).

Holding throughout (assay type): in vivo, male Carworth Farms #1 mice or Sprague-Dawley rats
The nature of test [1]: Anticonvulsant activity, both or unspecified seizure models. To be noted: for Time of peak activity (Phase II): Table X, IP, challenge time; for Anticonvulsant activity (in words): running text.
Test [2] in a line: Maximal Electroshock Seizure Test. To be noted: for ED50: read-out: ED50 for inhibition of seizures, MES (Phase II); for Lowest active dose, MES (Phase I): Table V. For orientation: In the maximal electroshock model the usual endpoint is tonic extension of the hind limbs.
A short description of test [3]: Subcutaneous Pentylenetetrazol (Metrazol) Seizure Threshold Test. To be noted: for ED50: read-out: ED50 for inhibition of seizures, Metrazol (Phase II); for Lowest active dose, Metrazol (Phase I): Table V; for Protection against Metrazol-induced seizures (in words): running text.
Setting [4] is: Table X, IP, at time of peak activity.
Where [5] appears, read: Table X, IP, challenge time 30 min.
[6] abbreviates: Table X, IP, challenge time 4 hrs.
The mark [7] stands for this setting: Table X, SC, challenge time 30 min.
[8] abbreviates: Table X, SC, challenge time 4 hrs.
Where [9] appears, read: Mus musculus, Table X, IP, at time of peak activity.

Take `O.O.O.O=C1[N-]C(=O)C(c2ccccc2)(c2ccccc2)N1.O=C1[N-]C(=O)C(c2ccccc2)(c2ccccc2)N1.[Cu+2]` [Cu(II)(Dilantin)2 (H2 O)3]: in test [1], the “Onset and duration of anticonvulsant action (in words)” value is “rapid onset and prolonged duration in inhibiting only Maximal Electroshock-induced seizures”; the “Time of peak activity (Phase II)” value stood at 4 h; the “Anticonvulsant activity (in words)” value is recorded as “did not potentiate but did block both types of seizures”. Besides, the “Time of peak effect” value in test [1] (Phase II) amounted to 4 h. Besides, the “ED50 for inhibition of seizures, MES (Phase II)” value in test [2] (setting [4]) was 13 mg/kg. In test [2] (setting [5]), the “Lowest effective dose, MES (Phase I)” value is reported as 30 milligrams per kilogram of bod. For the same compound, the “Lowest effective dose, MES (Phase I)” value in test [2] (setting [6]) is listed as 30 milligrams per kilogram of bod. Moreover, the “Lowest effective dose, Metrazol (Phase I)” value in test [3] (setting [5]) is listed as 100 milligrams per kilogram of bod. The “Lowest effective dose, Metrazol (Phase I)” value in test [3] (setting [6]) is 100 milligrams per kilogram of bod.

For `CCC1(c2ccccc2)C(=O)[N-]C(=O)NC1=O.CCC1(c2ccccc2)C(=O)[N-]C(=O)NC1=O.[Cu+2].c1ccncc1.c1ccncc1` [Cu(II)(Phenobarbital)2 (pyridine)2], in test [1], the “Time of peak activity (Phase II)” value was determined as 2 h. In addition, in test [2] (setting [4]), the “ED50 for inhibition of seizures, MES (Phase II)” value is 17 mg/kg. Also, the “Lowest effective dose, MES (Phase I)” value in test [2] (setting [5]) is reported as 100 milligrams per kilogram of bod; in test [2] (setting [6]) it was 100 milligrams per kilogram of bod; in test [2] (setting [7]) it was “I”; in test [2] (setting [8]) it was 30 milligrams per kilogram of bod. In test [3] (setting [4]), the “ED50 for inhibition of seizures, Metrazol (Phase II)” value was found to be 9 mg/kg. Besides, the “Lowest effective dose, Metrazol (Phase I)” value is given as 30 milligrams per kilogram of bod in test [3] (setting [5]), 30 milligrams per kilogram of bod in test [3] (setting [6]), “I” in test [3] (setting [7]) and 30 milligrams per kilogram of bod in test [3] (setting [8]).

With `CCC1(CCC(C)C)C(=O)[N-]C(=O)NC1=O.CCC1(CCC(C)C)C(=O)[N-]C(=O)NC1=O.CCC1(CCC(C)C)C(=O)[N-]C(=O)NC1=O.CCC1(CCC(C)C)C(=O)[N-]C(=O)NC1=O.O.O.O.O.O.[Cu+2].[Cu+2]` [Cu(II)(Amobarbital)2 (H2 O)2.5], the “Time of peak activity (Phase II)” value in test [1] came out at 0.5 h. Moreover, in test [2] (setting [4]), the “ED50 for inhibition of seizures, MES (Phase II)” value is 87 mg/kg. The “Lowest effective dose, MES (Phase I)” value is given as 300 milligrams per kilogram of bod in test [2] (setting [5]) and “I” in test [2] (setting [6]). Moreover, in test [3] (setting [4]), the “ED50 for inhibition of seizures, Metrazol (Phase II)” value is on record as 87 mg/kg. The “Lowest effective dose, Metrazol (Phase I)” value is recorded as 30 milligrams per kilogram of bod in test [3] (setting [5]) and “I” in test [3] (setting [6]).

As a reminder, the ED50 is the midpoint of the dose-response relation. For `CCC1(CCC(C)C)C(=O)NC(=O)NC1=O` [Amobarbital, reference compound], the “Time of peak activity (Phase II)” value in test [1] came to 0.25 h. The minimal effective dose in test [2] (Mus musculus, 0.5 h, read-out: Lowest effective dose, MES (Phase I)) amounted to 30 mg/kg; in test [3] (Mus musculus, 0.5 h, read-out: Lowest effective dose, Metrazol (Phase I)), 100 mg/kg. Moreover, the 50% effective dose (ED50) in test [2] (Mus musculus, ip) was found to be 45 mg/kg; in test [3] (Mus musculus, ip) it was 53 mg/kg. Moreover, the “Lowest effective dose, MES (Phase I)” value in test [2] (setting [6]) is on record as “I”. In addition, in test [3] (setting [6]), the “Lowest effective dose, Metrazol (Phase I)” value was “I”.

On to `CCC1(c2ccccc2)C(=O)[N-]C(=O)NC1=O.CCC1(c2ccccc2)C(=O)[N-]C(=O)NC1=O.O.O.O.[Cu+2]` [Cu(II)(Phenobarbital)2 (H2 O)3], for which the “Time of peak activity (Phase II)” value in test [1] came out at 2 h. In addition, in test [2] (setting [4]), the “ED50 for inhibition of seizures, MES (Phase II)” value is reported as 16 mg/kg. Besides, the “Lowest effective dose, MES (Phase I)” value in test [2] (setting [5]), in test [2] (setting [6]), in test [2] (setting [7]) and in test [2] (setting [8]) was 30 milligrams per kilogram of bod throughout. In test [3] (setting [4]), the “ED50 for inhibition of seizures, Metrazol (Phase II)” value is reported as 10 mg/kg. Further, the “Lowest effective dose, Metrazol (Phase I)” value in test [3] (setting [5]) is reported as 5 milligrams per kilogram of bod; in test [3] (setting [6]), 5 milligrams per kilogram of bod; in test [3] (setting [7]) it was 30 milligrams per kilogram of bod; in test [3] (setting [8]) it was 30 milligrams per kilogram of bod.

For Cu(II)Pyridoxylidene-L-valinate(H2 O), the “Anticonvulsant activity (in words)” value in test [1] is listed as “no activity”. Also, the “Lowest active dose, MES (Phase I)” value is “I” in test [2] (IP, challenge time 30 min) and “I” in test [2] (IP, challenge time 4 hrs). The “Lowest active dose, Metrazol (Phase I)” value was “I” in test [3] (IP, challenge time 30 min) and “I” in test [3] (IP, challenge time 4 hrs).

As for `CCCC(CCC)C(=O)O` [Valproic Acid, reference compound], the “Time of peak activity (Phase II)” value in test [1] turned out to be 0.25 h. Further, the 50% effective dose (ED50) amounted to 272 mg/kg in test [2] (setting [9]) and 149 mg/kg in test [3] (setting [9]). In addition, in test [2] (running text), the “Protection against Maximal Electroshock-induced seizures (in words)” value is given as “weakly effective against Maximal Electroshock-induced seizures”. Moreover, in test [3], the “Protection against Metrazol-induced seizures (in words)” value is reported as “more effective against Metrazol-induced seizures”.

As for `CCC1(c2ccccc2)C(=O)[N-]C(=O)NC1=O.CCC1(c2ccccc2)C(=O)[N-]C(=O)NC1=O.CCC1(c2ccccc2)C(=O)[N-]C(=O)NC1=O.CCC1(c2ccccc2)C(=O)[N-]C(=O)NC1=O.O.O.[Cu+2].[Na+].[Na+]` [Na2 [Cu(II)(Phenobarbital)4](H2 O)2], the “Time of peak activity (Phase II)” value in test [1] came to 6 h. Further, the “ED50 for inhibition of seizures, MES (Phase II)” value in test [2] (setting [4]) came to 25 mg/kg. For the same compound, the “Lowest effective dose, MES (Phase I)” value in test [2] (setting [5]) is listed as 30 milligrams per kilogram of bod; in test [2] (setting [6]) it was 100 milligrams per kilogram of bod; in test [2] (setting [7]), 30 milligrams per kilogram of bod; in test [2] (setting [8]), 30 milligrams per kilogram of bod. The “ED50 for inhibition of seizures, Metrazol (Phase II)” value in test [3] (setting [4]) is 20 mg/kg. The “Lowest effective dose, Metrazol (Phase I)” value in test [3] (setting [5]) is 30 milligrams per kilogram of bod; in test [3] (setting [6]) it was 100 milligrams per kilogram of bod; in test [3] (setting [7]), 30 milligrams per kilogram of bod; in test [3] (setting [8]), 100 milligrams per kilogram of bod.

Turning to “Cu(II)α-methyl-α-phenylsuccinimide(H2 O)0.75”, the “Anticonvulsant activity (in words)” value in test [1] was “effective in preventing both types of seizure with rapid onsets of action and prolonged durations of action following subcutaneous and intraperitoneal administration”. Further, the “Lowest effective dose, MES (Phase I)” value in test [2] (setting [5]) is on record as 100 milligrams per kilogram of bod; in test [2] (setting [6]), “I”; in test [2] (setting [7]), 30 milligrams per kilogram of bod; in test [2] (setting [8]), 100 milligrams per kilogram of bod. Besides, the “Lowest effective dose, Metrazol (Phase I)” value in test [3] (setting [5]) was 100 milligrams per kilogram of bod; in test [3] (setting [6]) it was 100 milligrams per kilogram of bod; in test [3] (setting [7]) it was 30 milligrams per kilogram of bod; in test [3] (setting [8]) it was 600 milligrams per kilogram of bod.

With `O=C1Nc2ccc(Cl)cc2C(c2ccccc2Cl)=NC1O` (stereo not shown) [Lorazepam, reference compound], the “Time of peak activity (Phase II)” value in test [1] worked out at 1 h. For the same compound, the ED50 was 24 mg/kg in test [2] (Mus musculus, ip) and 0.02 mg/kg in test [3] (Mus musculus, ip).

As for “Cu(II)Pyridoxylidene-L-phenylalaninate(H2 O)2”, the “Anticonvulsant activity (in words)” value in test [1] is “no activity”. For the same compound, the “Lowest active dose, MES (Phase I)” value in test [2] (IP, challenge time 30 min) was “I”; in test [2] (IP, challenge time 4 hrs), “I”. Besides, the “Lowest active dose, Metrazol (Phase I)” value in test [3] (IP, challenge time 30 min) is reported as “I”; in test [3] (IP, challenge time 4 hrs), “I”.

Consider Cu(II)Carbamazepine(H2 O)2, for which the “Anticonvulsant activity (in words)” value in test [1] is recorded as “effective anticonvulsant”. In addition, the “Lowest effective dose, MES (Phase I)” value is listed as 10 milligrams per kilogram of bod in test [2] (setting [5]), 100 milligrams per kilogram of bod in test [2] (setting [6]), 30 milligrams per kilogram of bod in test [2] (setting [7]) and 100 milligrams per kilogram of bod in test [2] (setting [8]). Besides, the “Lowest effective dose, Metrazol (Phase I)” value is 30 milligrams per kilogram of bod in test [3] (setting [5]), “I” in test [3] (setting [6]), 300 milligrams per kilogram of bod in test [3] (setting [7]) and 300 milligrams per kilogram of bod in test [3] (setting [8]). Besides, the “Protection against Metrazol-induced seizures (in words)” value in test [3] was “did not potentiate Metrazol seizures”.

`CCC1(c2ccccc2)C(=O)NC(=O)NC1=O` [Phenobarbital, reference compound]: the “Time of peak activity (Phase II)” value in test [1] was determined as 1 h. For the same compound, the ED50 in test [2] (Mus musculus, ip) came to 22 mg/kg; in test [3] (Mus musculus, ip) it was 13 mg/kg.

`O.O=C1Nc2ccc(Cl)cc2C(c2ccccc2Cl)=NC1O.O=C1Nc2ccc(Cl)cc2C(c2ccccc2Cl)=NC1O.[Cl-].[Cl-].[Cu+2]` (stereo not shown) [Cu(II)(Lorazepam)2 (Cl)2 H2 O]: the “Onset and duration of anticonvulsant action (in words)” value in test [1] is “rapid onset of action and prolonged duration following intraperitoneal and subcutaneous administration”. The “Anticonvulsant activity (in words)” value in test [1] is “appears to be quite active”. The “Lowest effective dose, MES (Phase I)” value was 20 milligrams per kilogram of bod in test [2] (setting [5]), 30 milligrams per kilogram of bod in test [2] (setting [6]), 20 milligrams per kilogram of bod in test [2] (setting [7]) and 100 milligrams per kilogram of bod in test [2] (setting [8]). For the same compound, the “Lowest effective dose, Metrazol (Phase I)” value in test [3] (setting [5]), in test [3] (setting [6]), in test [3] (setting [7]) and in test [3] (setting [8]) was “I” throughout.
